IC50 data for 37 compounds are collected here from patent publication US10487088B2, “Tricyclic compound serving as immunomodulator” (Chia Tai Tianqing Pharmaceutical Group Co., Ltd., priority 2016, dated 2019).

As usually defined, the pIC50 is the negative decadic logarithm of the IC50, by convention in mol/L.

pIC50: −log10 of the molar value.

T1 sequence (P14902 whole entry): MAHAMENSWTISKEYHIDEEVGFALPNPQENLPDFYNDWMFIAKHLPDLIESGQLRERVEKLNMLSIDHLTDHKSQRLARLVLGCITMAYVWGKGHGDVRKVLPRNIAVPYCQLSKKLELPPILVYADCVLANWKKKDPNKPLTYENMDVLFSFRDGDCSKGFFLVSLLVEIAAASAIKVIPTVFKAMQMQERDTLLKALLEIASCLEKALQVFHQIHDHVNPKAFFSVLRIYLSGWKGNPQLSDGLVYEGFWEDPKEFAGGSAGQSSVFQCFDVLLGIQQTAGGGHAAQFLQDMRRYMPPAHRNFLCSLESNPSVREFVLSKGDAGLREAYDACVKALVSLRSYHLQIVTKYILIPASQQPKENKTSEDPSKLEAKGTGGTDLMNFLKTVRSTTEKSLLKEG

The experiment has as its target T1, recombinant human IDO1 enzyme (Homo sapiens, UniProt P14902).
T1 construct: purchased NTRC NTRC-hlDO-10K
Description: In vitro hIDO1 enzyme activity test (NFK Green fluorescence). It counts as biochemical. As to conditions: recombinant human IDO1, L-tryptophan substrate, pH 6.5. The procedure:
The change of NFK production was detected by using the NFK Green™ fluorescent molecule, which is the metabolite of the IDO1 enzyme, and the IC50 value of the compound was used as an index, to evaluate the inhibitory effect of the compound on the recombinant human IDO1 enzyme.
IDO1 Enzyme Activity Assay Kit, NTRC # NTRC-hlDO-10K;
The compound was diluted to 1 mM in DMSO, and then diluted 3-fold in duplicate wells, with 10 gradients. 48 μL of 50 mM phosphate buffer (pH 6.5) was transferred to the compound plate via Bravo automated liquid handling platform. 2 μL of the diluted solution of the compound in DMSO was then added and mixed, followed by transferring 10 μL therein to an enzyme reaction plate.
The IDO1 enzyme was diluted to 20 nM in the reaction buffer (50 mM phosphate buffer pH 6.5, 0.1% Tween-20, 2% glycerol, 20 mM ascorbic acid, 20 μg/mL catalase and 20 μM methylene blue), and 20 μL of the solution was transferred to an enzyme reaction plate and incubated at 23° C. for 30 min. The reaction was started by adding 10 μL of 400 μM L-type tryptophan substrate and incubated at 23° C. for 90 min. 10 μL of NFK Green™ fluorescent dye was added, and the plate was sealed with the sealing film, incubated at 37° C. for 4 h, and then read on Envision Multimode Plate Reader (Ex 400 nm/Em 510 nm).
The control wells with the IDO1 enzyme but no compound was set as 0% inhibition, and the control wells without the IDO1 enzyme was set as 100% inhibition, and the IC50 value of the compound was calculated by analyzing the data with XLFit 5.
In the case of `c1ccc2c(c1)CCC(C1c3sccc3-c3cncn31)C2` (single isomer, unassigned) [Example 54, 8-tetrahydronaphthalen-2-yl-8H-thieno[3,4]pyrrolo[1,5-a]imidazole], the pIC50 is less than 5.00.

Regarding `c1ccc2c(c1)CCC(C1c3sccc3-c3cncn31)C2` (single isomer, unassigned) [Example 55, 8-tetrahydronaphthalen-2-yl-8H-thieno[3,4]pyrrolo[1,5-a]imidazole], the pIC50 was less than 5.00.

On to `c1ccc2c(c1)CCC(C1c3sccc3-c3cncn31)C2` (single isomer, unassigned) [Example 56, 8-tetrahydronaphthalen-2-yl-8H-thieno[3,4]pyrrolo[1,5-a]imidazole], for which the pIC50 was 6.07.

Take `c1ccc2c(c1)CCC(C1c3sccc3-c3cncn31)C2` (single isomer, unassigned) [Example 57, 8-tetrahydronaphthalen-2-yl-8H-thieno[3,4]pyrrolo[1,5-a]imidazole]: the pIC50 was 6.05.

`OC1CC(C2c3sccc3-c3cncn32)C1` (single isomer, unassigned) [Example 58, 3-(8H-thieno[3,4]pyrrolo[1,5-a]imidazol-8-yl)cyclobutanol]: the pIC50 was 5.68.

With `OC1CC(C2c3sccc3-c3cncn32)C1` (single isomer, unassigned) [Example 59, 3-(8H-thieno[3,4]pyrrolo[1,5-a]imidazol-8-yl)cyclobutanol], the pIC50 was less than 5.00.

With `OC1CC(C2c3sccc3-c3cncn32)C1` (single isomer, unassigned) [Example 60, 3-(8H-thieno[3,4]pyrrolo[1,5-a]imidazol-8-yl)cyclobutanol], the pIC50 is less than 5.00.

As for `OC1CC(C2c3sccc3-c3cncn32)C1` (single isomer, unassigned) [Example 61, 3-(8H-thieno[3,4]pyrrolo[1,5-a]imidazol-8-yl)cyclobutanol], the pIC50 was 5.92.

As for `OC1CCCC(C2c3sccc3-c3cncn32)C1` (single isomer, unassigned) [Example 64, 3-(8H-thieno[3′,2′:3,4]pyrrolo[1,2-c]imidazol-8-yl)cyclohexanol], the pIC50 is less than 5.00.

`OC1CCCC(C2c3sccc3-c3cncn32)C1` (single isomer, unassigned) [Example 65, 3-(8H-thieno[3′,2′:3,4]pyrrolo[1,2-c]imidazol-8-yl)cyclohexanol]: the pIC50 was 5.26.

With `OC1CCCC(C2c3sccc3-c3cncn32)C1` (single isomer, unassigned) [Example 66, 3-(8H-thieno[3′,2′:3,4]pyrrolo[1,2-c]imidazol-8-yl)cyclohexanol], the pIC50 was less than 5.00.

Turning to `OC1CCCC(C2c3sccc3-c3cncn32)C1` (single isomer, unassigned) [Example 67, 3-(8H-thieno[3′,2′:3,4]pyrrolo[1,2-c]imidazol-8-yl)cyclohexanol], the pIC50 is 6.79.

Consider `OC1CCCC(C2c3sccc3-c3cncn32)C1` (single isomer, unassigned) [Example 68, 3-(8H-thieno[3′,2′:3,4]pyrrolo[1,2-c]imidazol-8-yl)cyclohexanol], for which the pIC50 is 5.74.

With `OC1CCCC(C2c3sccc3-c3cncn32)C1` (single isomer, unassigned) [Example 69, 3-(8H-thieno[3′,2′:3,4]pyrrolo[1,2-c]imidazol-8-yl)cyclohexanol], the pIC50 was 5.63.

`OC1CCCC(C2c3sccc3-c3cncn32)C1` (single isomer, unassigned) [Example 70, 3-(8H-thieno[3′,2′:3,4]pyrrolo[1,2-c]imidazol-8-yl)cyclohexanol]: the pIC50 was 5.96.

Take `OC1CCCC(C2c3sccc3-c3cncn32)C1` (single isomer, unassigned) [Example 71, 3-(8H-thieno[3′,2′:3,4]pyrrolo[1,2-c]imidazol-8-yl)cyclohexanol]: the pIC50 was less than 5.00.

For `c1cc2c(s1)C(C1CCCC1)n1cncc1-2` (single isomer, unassigned) [Example 74, 8-cyclopentyl-8H-thieno[3,4]pyrrolo[1,5-a]imidazole], the pIC50 is 6.59.

Regarding `c1cc2c(s1)C(C1CCCC1)n1cncc1-2` (single isomer, unassigned) [Example 75, 8-cyclopentyl-8H-thieno[3,4]pyrrolo[1,5-a]imidazole], the pIC50 was less than 5.00.

Turning to `FC1(F)[C@@H]2C[C@H](C3c4sccc4-c4cncn43)C[C@@H]21` (single isomer, unassigned) [Example 76, 8-(6,6-difluoro-3-bicyclo[3.1.0]cyclohexyl)-8H-thieno[3,4]pyrrolo[1,5-a]imidazole (cis)], the pIC50 was 6.05.

For `CC1(C)CC(C2c3sccc3-c3cncn32)CCO1` (single isomer, unassigned) [Example 78, 8-(2,2-dimethyltetrahydropyran-4-yl)-8H-thieno[3,4]pyrrolo[1,5-a]imidazole], the pIC50 was less than 5.00.

As to `CC1(C)CC(C2c3sccc3-c3cncn32)CCO1` (single isomer, unassigned) [Example 79, 8-(2,2-dimethyltetrahydropyran-4-yl)-8H-thieno[3,4]pyrrolo[1,5-a]imidazole], the pIC50 was less than 5.00.

`CC1(C)CC(C2c3sccc3-c3cncn32)CCO1` (single isomer, unassigned) [Example 80, 8-(2,2-dimethyltetrahydropyran-4-yl)-8H-thieno[3,4]pyrrolo[1,5-a]imidazole]: the pIC50 is 5.30.

Take `CC1(C)CC(C2c3sccc3-c3cncn32)CCO1` (single isomer, unassigned) [Example 81, 8-(2,2-dimethyltetrahydropyran-4-yl)-8H-thieno[3,4]pyrrolo[1,5-a]imidazole]: the pIC50 was 5.08.

Turning to `OC1CCCCC1C1c2sccc2-c2cncn21` (single isomer, unassigned) [Example 82], the pIC50 is 5.81.

For `OC1CCCCC1C1c2sccc2-c2cncn21` (single isomer, unassigned) [Example 83], the pIC50 is 5.90.

For the compound `OC1CCCCC1C1c2sccc2-c2cncn21` (single isomer, unassigned) [Example 84], the pIC50 was 6.34.

On to `c1ccc(N2CCC(C3c4sccc4-c4cncn43)CC2)cc1` (single isomer, unassigned) [Example 86, 8-(1-phenylpiperidin-4-yl)-8H-thieno[3′,2′:3,4]pyrrolo[1,2-c]imidazole], for which the pIC50 is 6.26.

As for `c1ccc(N2CCC(C3c4sccc4-c4cncn43)CC2)cc1` (single isomer, unassigned) [Example 87, 8-(1-phenylpiperidin-4-yl)-8H-thieno[3′,2′:3,4]pyrrolo[1,2-c]imidazole], the pIC50 is less than 5.00.

Regarding `c1ccc(C2CCC(C3c4sccc4-c4cncn43)CC2)cc1` (single isomer, unassigned) [Example 88, 8-(4-phenylcyclohexyl)-8H-thieno[3′,2′:3,4]pyrrolo[1,2-c]imidazole], the pIC50 was 6.32.

`c1ccc(C2CCC(C3c4sccc4-c4cncn43)CC2)cc1` (single isomer, unassigned) [Example 89, 8-(4-phenylcyclohexyl)-8H-thieno[3′,2′:3,4]pyrrolo[1,2-c]imidazole]: the pIC50 is less than 5.00.

With `Cc1cc2c(s1)C(C1CCCCC1)n1cncc1-2` (single isomer, unassigned) [Example 90, 8-cyclohexyl-2-dimethyl-8H-thieno[3′,2′:3,4]pyrrolo[1,2-c]imidazole], the pIC50 was less than 5.00.

With `Cc1cc2c(s1)C(C1CCCCC1)n1cncc1-2` (single isomer, unassigned) [Example 91, 8-cyclohexyl-2-dimethyl-8H-thieno[3′,2′:3,4]pyrrolo[1,2-c]imidazole], the pIC50 was 5.17.

`c1ccc2c(C3CCC(C4c5sccc5-c5cncn54)CC3)ccnc2c1` (single isomer, unassigned) [Example 92, 5-(4-(quinolin-4-yl)cyclohexyl)-8H-thieno[3′,2′:3,4]pyrrolo[1,2-c]imidazole]: the pIC50 was 6.16.

Take `c1ccc2c(C3CCC(C4c5sccc5-c5cncn54)CC3)ccnc2c1` (single isomer, unassigned) [Example 93, 5-(4-(quinolin-4-yl)cyclohexyl)-8H-thieno[3′,2′:3,4]pyrrolo[1,2-c]imidazole]: the pIC50 was less than 5.00.

Turning to `c1ccc2c(C3CCC(C4c5sccc5-c5cncn54)CC3)ccnc2c1` (single isomer, unassigned) [Example 94, 5-(4-(quinolin-4-yl)cyclohexyl)-8H-thieno[3′,2′:3,4]pyrrolo[1,2-c]imidazole], the pIC50 was 5.84.

On to `c1ccc2c(C3CCC(C4c5sccc5-c5cncn54)CC3)ccnc2c1` (single isomer, unassigned) [Example 95, 5-(4-(quinolin-4-yl)cyclohexyl)-8H-thieno[3′,2′:3,4]pyrrolo[1,2-c]imidazole], for which the pIC50 was less than 5.00.

With `O=C(O)C1CCCC(C2c3sccc3-c3cncn32)C1` (single isomer, unassigned) [Example 97, 3-(8H-thieno[3,4]pyrrolo[1,5-a]imidazol-8-yl) cyclohexylcarboxylic acid], the pIC50 was less than 5.00.
